Reference: patent US20100298394A1, “ANTIFUNGAL AGENTS AS NEUROPROTECTANTS” (THE JOHNS HOPKINS UNIVERSITY, priority 2007, published 2010)

Experiments:
[1] = system: rat mixed hippocampal cultures; experiment: 3-NP neurotoxicity (neuroprotection) assay, MTT endpoint; type: cell-based; details: for % Protection vs. 3-NP / Protection vs 3NP: 10 μM agent, 60 minutes incubation, 3 mM 3-NP, compared to 0.1% DMSO vehicle control; for protection from oxidative damage elicited by 3-NP (FIG. 4): increasing concentrations, 1 h prior to 3 mM 3-NP for 18 h; for protection from oxidative damage elicited by 3-NP (positive controls, FIG. 2): 10 μM, 1 hour pretreatment, 3 mM 3-NP for 18 hours
Protocol: For example, a cell viability assay can be utilized to detect and/or measure the ability of a compound disclosed herein to protect neuronal and/or glial cells. In some embodiments, mixed hippocampal cell cultures are prepared as described in, e.g., Haughey et al. (1999), J Neurochem, 73(4):1363-1374, and Haughey et al (2004), J Neurosci, 24(1):257-268. Subsequently, the cultures are pretreated for one hour in the presence of a candidate neuroprotective agent and then incubated with a cytotoxic agent for about 18 hours. Examples of cytotoxic agents include, but are not limited to, oxidative stressors (e.g., 3-nitropropionic acid (3-NP) or H2O2),.excitatory amino acids (e.g., kainate), or neurotoxic proteins (e.g., Hiv Tat, or Aβ peptides). […] The level of protection (“percent protection”) provided by the test compound at a given test concentration in vitro can be expressed as: […]
(§1) We evaluate the protective efficacy of a number of antifungal agents against many different neurotoxins, ranging from the chemotoxic 6-OHDA, NMDA, 3-nitropropionic acid (3-NP), and viral proteins such as Tat and gp120. Thus, we provide an in vitro neuroprotection assay using rat mixed hippocampal cultures, in which we evaluate the protective efficacy of neuroprotective compounds described herein. The oxidative stressor 3-NP is used to elicit toxicity in the rat hippocampal cultures to mimic the oxidative damage, reactive oxygen species production and ensuing neurodegeneration resulting from HIV infection. Another measure of neurotoxicity which results from HIV infection is evaluated by exposure of the hippocampal cultures to HIV-1 Tat (Li et al (2005), Neurotox Res, 8(1-2):119-134).
(§2) Rat mixed hippocamal neuronal cultures are generated from freshly dissected rat hippocampi (embryonic day 18) in neurobasal media containing 5% fetal bovine serum and 2% B27 supplement. The cells are plated into 96 well plates at a density of 4×10^5 cells/mL and routinely used on days 11-14 following culturing. Cell viability is assessed with MTT [3-(4,5-dimethylthiazol-2-yl)-2,5-diphenyltetrazolium bromide] assay. The MTT assay is based on the ability of a mitochondrial dehydrogenase enzyme from viable cells to cleave the tetrazolium rings of the pale yellow MTT and form dark blue formazan crystals. See Mosmann (1983), J Immunol Methods, 65(1-2):55-63. These crystals are largely impermeable to cell membranes, and thus accumulate within healthy cells. The resultant formazan precipitates are solubilized with DMSO and read on a multiwell scanning spectrophotometer (ELISA reader). The number of surviving cells is directly proportional to the level of the formazan product created.
(§3) Mixed hippocampal cultures are incubated with 3-NP (0.5-10 mM) for 18 hours in a 0.1% DMSO vehicle and then assessed for viability using an MTT assay.
Neuroprotection vs 3NP is measured as a percentage of neural and/or glial cell that are protected from 3NP induced cell death after incubation with the neuroprotective agent (10 μM) for 60 minutes when compared to a 0.1% DMSO vehicle control.
The neural and glial cells were preincubated with the neuroprotective compound for 1 hour followed by exposure to3 mM of the toxin for 18 hours.

[2] = system: Mixed hippocampal cultures; experiment: NMDA excitotoxicity assay, MTT endpoint; type: cell-based, rat; details: increasing concentrations, 1 h prior to 500 μM NMDA for 18 h
Protocol: (§4) Mixed hippocampal cultures were treated with increasing concentrations of fluconazole (panel A) or voriconazole (panel B), for 1 h prior to exposure to 500 μM N-methyl D-aspartate (NMDA) for 18 h. Cell survival was measured following NMDA by MTT assay. Statistical significance was determined by ANOVA with Newman-Keuls pairwise post hoc comparisons. Statistical significance * indicates p<0.05, ** indicates p<0.01; *** indicates p<0.001.
as §2, with “The number of surviving cells is directly proportional to the level of the formazan product created.” left out

[3] = system: Mixed hippocampal cultures; experiment: 6-OHDA neurotoxicity assay, MTT endpoint; type: cell-based, rat; details: increasing concentrations, 1 h prior to 100 μM 6-OHDA for 18 h
Protocol: as §4, with “100” for “500”, “6-hydroxydopamine (6-OHDA)” for “N-methyl D-aspartate (NMDA)”, “6-OHDA” for “NMDA”, “p<0.00” for “p<0.001.”
as §2, with “The number of surviving cells is directly proportional to the level of the formazan product created.” left out

[4] = system: Human cortical neuronal cultures; experiment: 3-NP toxicity assay in human neurons, MTT endpoint; type: cell-based; details: increasing concentrations, 1 h prior to 3 mM 3-NP for 18 h
Protocol: (§5) Human cortical neuronal cultures were treated with increasing concentrations of fluconazole for 1 h prior to exposure to 3 mM 3-NP (panel A) or 100 μM 6-OHDA (panel B) for 18 h. Cell survival was measured by MTT assay. Statistical significance was determined by ANOVA with Newman-Keuls pairwise post hoc comparisons. Statistical significance * indicates p<0.05, ** indicates p<0.01; *** indicates p<0.001.
(§6) FIG. 9 illustrates the protection of human neuronal cultures from 3-NP and 6-OHDA with fluconazole (FIGS. 9A-9B, respectively). The neural and glial cells were preincubated with the neuroprotective compound for 1 hour followed by exposure to 3 mM 3-NP or 100 μM 6-OHDA for 18 hours.

[5] = system: Mixed hippocampal cultures; experiment: ADP ribose toxicity assay, MTT endpoint; type: cell-based, rat; details: increasing concentrations, 24 h prior to 1 mM ADP ribose for 18 h
Protocol: as §4, with “B), for 24 h prior” for “B), for 1 h prior”, “exposure to 1 mM ADP ribose for 18” for “exposure to 500 μM N-methyl D-aspartate (NMDA) for 18”, “measured following ADP ribose by MTT” for “measured following NMDA by MTT”
as §2, with “The number of surviving cells is directly proportional to the level of the formazan product created.” left out

[6] = system: Human cortical neuronal cultures; experiment: 6-OHDA toxicity assay in human neurons, MTT endpoint; type: cell-based; details: increasing concentrations, 1 h prior to 100 μM 6-OHDA for 18 h
Protocol: as §5, §6

[7] = system: rat mixed hippocampal cultures; experiment: HIV-1 Tat neurotoxicity assay, MTT endpoint; type: cell-based; details: for protection of hippocampal cultures from HIV-Tat toxicity (FIG. 5): increasing concentrations, 1 hour preincubation, 500 nM Tat1-72 for 18 hours; for protection from HIV-1 Tat toxicity (positive controls, FIG. 3): 10 μM, 1 hour pretreatment, 500 nM Tat for 18 hours
Description: as §1, §2
The assay system is validated using two neuroprotective agents, GPI 1046 and Resveratrol. […] Cultures are preincubated with GPI 1046 or Resveratrol for one hour prior to an 18 hour exposure to 3 mM 3-NP. […] The same neuroprotective compounds are evaluated for efficacy against HIV-1 Tat protein toxicity using the same 1 hour preincubation protocol.
The neural and glial cells were preincubated with the neuroprotective compound for 1 hour followed by exposure to 500 nM of Tat1-72 for 18 hours.

[8] = system: rat mixed hippocampal cultures; experiment: Titration of 3-NP toxicity, MTT endpoint; type: cell-based; details: 3 mM 3-NP, 18 hours, compared to 0.1% DMSO vehicle control
Protocol: FIG. 1 presents an illustrative titration of 3-NP toxicity in rat mixed hippocampal cultures. Rat mixed hippocampal cultures, day 11-14 in vitro, were subjected to 18 hour exposure to 3-NP, followed by MTT treatment to quantitate cell viability.
as §2, §3

Row | SMILES | % Protection vs. 3-NP [1] [%] | Protection vs 3NP [1] [%] | protection from oxidative damage elicited by 3-NP (FIG. 4) [1] | protection of hippocampal cultures from HIV-Tat toxicity (FIG. 5) [7] | other results
1 | Clc1ccc(COC(Cn2ccnc2)c2ccc(Cl)cc2Cl)c(Cl)c1 (stereo not shown) [MICONAZOLE NITRATE, Miconazole Nitrate] | 81.6 | 81.61 | – | – | –
2 | OC(Cn1cncn1)(Cn1cncn1)c1ccc(F)cc1F [FLUCONAZOLE, Fluconazole] | 13.3 | 13.35 | protect hippocampal neurons from oxidative damage elicited by 3-NP | concentration dependent protection | protection from excitotoxic lesions elicited by NMDA (FIG. 6) [2]: protect hippocampal neurons from excitotoxic lesions elicited by NMDA; protection from 6-OHDA neurotoxicity (FIG. 7) [3]: protect hippocampal neurons from 6-OHDA neurotoxicity; protection of human cortical neurons from 3-NP toxicity (FIG. 9A) [4]: protects human cortical neurons; protection from toxicity elicited by ADP ribose (FIG. 8) [5]: protect hippocampal neurons from toxicity elicited by ADP ribose; protection of human cortical neurons from 6-OHDA toxicity (FIG. 9B) [6]: protects human cortical neurons
3 | Clc1ccc(COC(Cn2ccnc2)c2ccc(Cl)cc2Cl)c(Cl)c1 (stereo not shown) [miconazole] | – | – | protect hippocampal neurons from oxidative damage elicited by 3-NP | concentration dependent protection | –
4 | CCC(C)(C)C(=O)C(=O)N1CCC[C@H]1C(=O)OCCCc1cccnc1 [GPI 1046] | – | – | – | – | protection from oxidative damage elicited by 3-NP (positive controls, FIG. 2) [1]: significantly protected rat neurons from oxidative damage; protection from HIV-1 Tat toxicity (positive controls, FIG. 3) [7]: protected hippocampal neurons from Tat toxicity
5 | Clc1ccc(COC(Cn2ccnc2)c2ccc(Cl)cc2Cl)cc1 (stereo not shown) [ECONAZOLE NITRATE, Econazole Nitrate] | 141.2 | 141.18 | – | – | –
6 | Clc1ccccc1C(c1ccccc1)(c1ccccc1)n1ccnc1 [CLOTRIMAZOLE, Clotrimazole] | 12.6 | 12.57 | protect hippocampal neurons from oxidative damage elicited by 3-NP | concentration dependent protection | –
7 | O=C(O)CC[N+](=O)[O-] [3-NP, 3-nitropropionic acid] | – | – | – | – | cytotoxicity [8]: 25-35%
8 | COc1ccc(/C=C/c2cc(O)cc(O[C@@H]3O[C@H](CO)[C@@H](O)[C@H](O)[C@H]3O)c2)cc1O [RHAPONTIN] | – | 22.12 | – | – | –
9 | Clc1ccc(CSC(Cn2ccnc2)c2ccc(Cl)cc2Cl)cc1 (stereo not shown) [SULCONAZOLE NITRATE, Sulconazole Nitrate] | 18.21 | 18.21 | – | – | –
10 | CC(=O)N1CCN(c2ccc(OCC3COC(Cn4ccnc4)(c4ccc(Cl)cc4Cl)O3)cc2)CC1 (stereo not shown) [KETOCONAZOLE] | – | 20.93 | – | – | –
11 | CC(=O)OCC(COC(C)=O)OC(C)=O [TRIACETIN] | – | 45.14 | – | – | –
12 | Cc1cccc(N(C)C(=S)Oc2ccc3ccccc3c2)c1 [TOLNAFTATE, Tolnaftate] | 66.8 | 66.83 | protect hippocampal neurons from oxidative damage elicited by 3-NP | concentration dependent protection | –
13 | Fc1ccc(C(c2ccccc2)(c2ccccc2F)n2ccnc2)cc1 (stereo not shown) [FLUTRIMAZOLE] | – | 46.85 | – | – | –
14 | CCCCCCOc1ccccc1C(N)=O [EXALAMIDE] | – | 9.19 | – | – | –
15 | C[C@@H]1[C@H](O)[C@@H](C)/C=C/C=C/CC/C=C/C=C/C=C/C=C/C(O[C@H]2O[C@H](C)[C@@H](O)[C@H](N)[C@@H]2O)CC2O[C@](O)(CC(O)C(O)CCC(O)CC(O)CC(O)CC(=O)O[C@H]1C)CC(O)C2C(=O)O (stereo partly shown) [NYSTATIN] | – | 46.72 | – | – | –
16 | C[C@@H](c1ncncc1F)[C@](O)(Cn1cncn1)c1ccc(F)cc1F [voriconazole] | – | – | protect hippocampal neurons from oxidative damage elicited by 3-NP | concentration dependent protection | protection from excitotoxic lesions elicited by NMDA (FIG. 6) [2]: protect hippocampal neurons from excitotoxic lesions elicited by NMDA; protection from 6-OHDA neurotoxicity (FIG. 7) [3]: protect hippocampal neurons from 6-OHDA neurotoxicity; protection from toxicity elicited by ADP ribose (FIG. 8) [5]: protect hippocampal neurons from toxicity elicited by ADP ribose
17 | Clc1ccc(COC(Cn2ccnc2)c2ccc(Cl)cc2Cl)cc1 (stereo not shown) [econazole] | – | – | protect hippocampal neurons from oxidative damage elicited by 3-NP | concentration dependent protection | –
18 | Oc1ccc(C=Cc2cc(O)cc(O)c2)cc1 [Resveratrol] | – | – | – | – | protection from oxidative damage elicited by 3-NP (positive controls, FIG. 2) [1]: significantly protected rat neurons from oxidative damage; protection from HIV-1 Tat toxicity (positive controls, FIG. 3) [7]: protected hippocampal neurons from Tat toxicity
